US20250303005A1, “PROSTATE SPECIFIC MEMBRANE ANTIGEN (PSMA) LIGANDS WITH IMPROVED RENAL CLEARANCE” (Deutsches Krebsforschungszentrum Stiftung des öffentlichen …, priority 2022, published 2025)
Like-named read-outs stand apart in the source and are kept apart here. Starred links: 1 amine or outer side, 2 acyl side, 3 side chain; linkers in the order of their positions; H or OH if unused. Non-standard residues stand in square brackets, D forms with d. Residues, ends and D or L forms follow the SMILES beside them. ξ: configuration not given here. *: point of attachment. DOTA = O=C(O)CN1CCN(CC(=O)O)CCN(CC(=O)*)CCN(CC(=O)O)CC1; EuK = O=C(O)CC[C@H](NC(=O)N[C@@H](CCCCN*)C(=O)O)C(=O)O; X2 = O=C(O)CCC(NC(=O)NC(CCCCN*)C(=O)O)C(=O)O; 2Nal = N[C@@H](Cc1ccc2ccccc2c1)C(=O)O; ξ2Nal = NC(Cc1ccc2ccccc2c1)C(=O)O; Trx = NC[C@H]1CC[C@H](C(=O)O)CC1; X1 = O=C(C1CCC(CN[*:1])CC1)[*:2]; Sar = CNCC(=O)O

How the values were obtained:
[1] = tested on: prostate cancer patients; conditions: two patients with extremely advanced and end-stage disease; cited from earlier work
[2] = target: T1, PSMA (Homo sapiens, UniProt Q04609); assay: Competitive cell binding assay against 68Ga-PSMA-10 on LNCaP cells
T1 construct: in vitro using PSMA^+-cells (LNCaP); host or cells: LNCaP
Protocol: PSMA+LNCaP cells (CRL-1740; ATCC; PSMA-positive) and PC-3 cells (CRL-1435; ATCC; PSMA-negative) were cultured in RPMI medium supplemented with 10% fetal calf serum and 2 mmol/L L-glutamine (all from PAA). Cells were grown at 37° C. in humidified air with 5% CO2 and were harvested using trypsin-ethylenediaminetetraacetic acid (trypsin-EDTA; 0.25% trypsin, 0.02% EDTA, Invitrogen). The competitive cell binding assay and internalization experiments were performed as described previously (2). For competitive cell binding, the cells (10^5 per well) were incubated with a 0.8 nM solution of ^68Ga-labeled radioligand [Glu-urea-Lys(Ahx)]2-HBED-CC (PSMA-10, precursor ordered from ABX, Radeberg, Germany) in the presence of 12 different concentrations of DOTA-compound (0-5000 nM, 100 μL/well). After incubation, the mixture was removed and the wells were washed 3 times with PBS using a multiscreen vacuum manifold (Millipore, Billerica, MA). Cell-bound radioactivity was measured using a gamma counter (Perkin Elmer 2480, Wizard, Gamma Counter). The 50% inhibitory concentration (IC50) values were calculated by fitting the data using a nonlinear regression algorithm (GraphPad Software) (see Table 2)

[3] = tested on: PSMA+LNCaP cells; assay: Cell surface binding and internalization of 68Ga-labeled compounds; format: cell-based; conditions: specific uptake by blockage with 500 μM 2-PMPA, mean ± SD (n = 3)
Protocol: (§1) PSMA+LNCaP cells (CRL-1740; ATCC; PSMA-positive) and PC-3 cells (CRL-1435; ATCC; PSMA-negative) were cultured in RPMI medium supplemented with 10% fetal calf serum and 2 mmol/L L-glutamine (all from PAA). Cells were grown at 37° C. in humidified air with 5% CO2 and were harvested using trypsin-ethylenediaminetetraacetic acid (trypsin-EDTA; 0.25% trypsin, 0.02% EDTA, Invitrogen).
(§2) For internalization experiments, 10^5 cells per well were seeded in poly-L-lysine coated 24-well cell culture plates 24 h before incubation. After washing, the cells were incubated with 30 nM of the radiolabeled DOTA-compound (radiolabeled with ^68Ga or ^177Lu) for 45 min at 37° C. (labeling was performed with 5 nmol of precursor peptide). Specific cell uptake was determined by blockage using 500 μM 2-PMPA (2-(phosphonomethyl)pentanedioic acid). Cellular uptake was terminated by washing 3 times with 1 mL of ice-cold PBS. To remove surface-bound radioactivity, cells were incubated twice with 0.5 mL glycine-HCl in PBS (50 mM, pH=2.8) for 5 min. The cells were washed with 1 mL of ice-cold PBS and lysed using 0.3 N NaOH (0.5 mL). The surface-bound and the internalized fractions were measured in a gamma counter. The cell uptake was calculated as percent of the initially added radioactivity bound to 10^5 cells [% ID/10^5 cells] (see Table 2 and Table 2a).

[4] = tested on: PSMA+LNCaP cells; assay: Cell surface binding and internalization of 177Lu labeled compounds, without or with blocking by 2-PMPA; format: cell-based; conditions: 7.5 pmol precursor per 10^5 cells, 45 min; for Internalization Block / Surface Block: with blocking by 500 μM 2-PMPA (n = 3); for Internalization / Surface: without blocking (n = 3)
Protocol: as §1, §2

[5] = free ligands, LNCaP, radioligand 68Ga-PSMA-10 0.8 nM, mean ± SD (n = 3), read-out: ki free ligands

T1 sequence (Q04609 whole entry): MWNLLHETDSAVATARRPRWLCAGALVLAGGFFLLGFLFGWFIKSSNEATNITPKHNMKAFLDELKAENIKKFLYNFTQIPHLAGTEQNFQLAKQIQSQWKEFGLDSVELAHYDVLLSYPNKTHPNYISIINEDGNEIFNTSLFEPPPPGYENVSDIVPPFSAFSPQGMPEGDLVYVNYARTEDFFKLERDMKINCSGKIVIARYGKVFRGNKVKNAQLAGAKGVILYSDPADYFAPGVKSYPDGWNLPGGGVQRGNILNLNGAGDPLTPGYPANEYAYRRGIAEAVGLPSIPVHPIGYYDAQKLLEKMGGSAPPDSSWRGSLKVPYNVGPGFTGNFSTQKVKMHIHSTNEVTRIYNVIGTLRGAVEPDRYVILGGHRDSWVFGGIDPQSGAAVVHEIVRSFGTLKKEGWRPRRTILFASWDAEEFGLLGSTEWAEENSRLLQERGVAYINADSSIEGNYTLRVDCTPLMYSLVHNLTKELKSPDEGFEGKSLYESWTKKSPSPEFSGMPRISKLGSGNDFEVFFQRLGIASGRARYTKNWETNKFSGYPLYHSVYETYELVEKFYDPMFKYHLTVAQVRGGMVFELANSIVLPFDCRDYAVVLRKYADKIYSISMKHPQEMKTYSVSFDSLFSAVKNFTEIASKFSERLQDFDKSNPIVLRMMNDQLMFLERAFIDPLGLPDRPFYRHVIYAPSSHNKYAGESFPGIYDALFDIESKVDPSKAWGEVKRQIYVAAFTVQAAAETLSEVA

| Compound | Response in patients [1] | Ki [2] [µM] | Specifically cell surface bound [3] [% AR/10^5 cells] | Specifically internalized [3] [% AR/10^5 cells] | Internalization Block [4] [% AR/10^5 cells] | Surface Block [4] [% AR/10^5 cells] | Internalization [4] [% AR/10^5 cells] | Surface [4] [% AR/10^5 cells] | Ki [2, 5] [µM] |
| --- | --- | --- | --- | --- | --- | --- | --- | --- | --- |
| O=C([O-])CC[C@H](NC(=O)N[C@@H](CCCCNC(=O)[C@H](Cc1ccc2ccccc2c1)NC(=O)C1CCC(CNC(=O)CN2CCN(CC(=O)[O-])CCN(CC(=O)[O-])CCN(CC(=O)[O-])CC2)CC1)C(=O)[O-])C(=O)[O-].[225Ac].[H+].[H+].[H+] (stereo partly shown) [225Ac-PSMA-617] | complete remission |  |  |  |  |  |  |  |  |
| CN(CC(=O)NC[C@H]1CC[C@H](C(=O)N[C@@H](Cc2ccc3ccccc3c2)C(=O)NCCCC[C@H](NC(=O)N[C@@H](CCC(=O)O)C(=O)O)C(=O)O)CC1)C(=O)CN(C)C(=O)CN(C)C(=O)CN1CCN(CC(=O)O)CCN(CC(=O)O)CCN(CC(=O)O)CC1 [DOTA-Sar3-Chx-2-NaI-Lys-urea-Glu] ({DOTA}-[Sar][Sar][Sar][Trx][2Nal]-EuK) |  | 0.0297 ± 0.0242 | 4.42 ± 2.05 | 2.20 ± 0.98 | 0.01 ± 0.01 | 0.03 ± 0.01 | 0.13 ± 0.08 | 0.65 ± 0.15 |  |
| CN(CC(=O)NCC1CCC(C(=O)NC(Cc2ccc3ccccc3c2)C(=O)NCCCCC(NC(=O)NC(CCC(=O)O)C(=O)O)C(=O)O)CC1)C(=O)CN(C)C(=O)CN(C)C(=O)CN(C)C(=O)CN(C)C(=O)CN1CCN(CC(=O)O)CCN(CC(=O)O)CCN(CC(=O)O)CC1 (stereo not shown) [DOTA-Sar5-Chx-2-NaI-Lys-urea-Glu] ({DOTA}-[Sar][Sar][Sar][Sar][Sar][X1][ξ2Nal]-X2) |  |  | 2.79 ± 0.50 | 1.99 ± 1.15 | 0.00 ± 0.00 | 0.02 ± 0.01 | 0.10 ± 0.06 | 0.47 ± 0.12 | 0.0543 ± 0.0336 |
| CN(CC(=O)NCC1CCC(C(=O)NC(Cc2ccc3ccccc3c2)C(=O)NCCCCC(NC(=O)NC(CCC(=O)O)C(=O)O)C(=O)O)CC1)C(=O)CN(C)C(=O)CN(C)C(=O)CN(C)C(=O)CN(C)C(=O)CN(C)C(=O)CN(C)C(=O)CN(C)C(=O)CN(C)C(=O)CN(C)C(=O)CN1CCN(CC(=O)O)CCN(CC(=O)O)CCN(CC(=O)O)CC1 (stereo not shown) [DOTA-Sar10-Chx-2-NaI-Lys-urea-Glu] |  |  | 3.66 ± 1.31 | 2.31 ± 0.90 | 0.00 ± 0.00 | 0.03 ± 0.02 | 0.10 ± 0.06 | 0.45 ± 0.08 | 0.0968 ± 0.0964 |
| CN(CC(=O)NCC1CCC(C(=O)NC(Cc2ccc3ccccc3c2)C(=O)NCCCCC(NC(=O)NC(CCC(=O)O)C(=O)O)C(=O)O)CC1)C(=O)CN(C)C(=O)CN(C)C(=O)CN(C)C(=O)CN(C)C(=O)CN(C)C(=O)CN(C)C(=O)CN(C)C(=O)CN(C)C(=O)CN(C)C(=O)CN(C)C(=O)CN(C)C(=O)CN(C)C(=O)CN(C)C(=O)CN(C)C(=O)CN1CCN(CC(=O)O)CCN(CC(=O)O)CCN(CC(=O)O)CC1 (stereo not shown) [DOTA-Sar15-Chx-2-NaI-Lys-urea-Glu] |  |  | 3.71 ± 1.55 | 2.03 ± 1.71 | 0.00 ± 0.00 | 0.02 ± 0.01 | 0.11 ± 0.05 | 0.52 ± 0.03 | 0.0747 ± 0.036 |
| O=C(O)CC[C@H](NC(=O)N[C@@H](CCCCNC(=O)[C@H](Cc1ccc2ccccc2c1)NC(=O)[C@H]1CC[C@H](CNC(=O)CN2CCN(CC(=O)O)CCN(CC(=O)O)CCN(CC(=O)O)CC2)CC1)C(=O)O)C(=O)O [PSMA-617, reference compound] |  |  | 3.47 ± 1.53 | 2.55 ± 1.97 |  |  |  |  |  |
